Laboratory results from ChEMBL document CHEMBL1145498, “A systematic interaction map of validated kinase inhibitors with Ser/Thr kinases” (Proc Natl Acad Sci U S A, 2007).

These compounds were tested against Glycogen synthase kinase-3 beta (Homo sapiens, UniProt P49841).
Glycogen synthase kinase-3 beta, sequence (P49841 whole entry, looked up): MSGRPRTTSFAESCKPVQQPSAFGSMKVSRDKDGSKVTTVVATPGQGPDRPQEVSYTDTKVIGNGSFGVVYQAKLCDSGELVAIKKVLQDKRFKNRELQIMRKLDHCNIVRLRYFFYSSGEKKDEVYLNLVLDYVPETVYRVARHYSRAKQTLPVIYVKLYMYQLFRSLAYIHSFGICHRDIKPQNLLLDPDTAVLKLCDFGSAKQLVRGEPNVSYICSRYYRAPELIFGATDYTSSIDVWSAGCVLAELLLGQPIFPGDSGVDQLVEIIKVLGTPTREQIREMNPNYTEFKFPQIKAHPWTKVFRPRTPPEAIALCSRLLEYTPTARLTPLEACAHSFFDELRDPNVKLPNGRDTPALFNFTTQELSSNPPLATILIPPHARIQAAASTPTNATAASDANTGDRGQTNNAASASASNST

Structure (SMILES)	ΔTm [°C]
Cl.Cn1cc(C2=C(c3ccc4cc5n(c4c3)CCC(CN)C5)C(=O)NC2=O)c2ccccc21 (stereo not drawn)	6.7
C[S+]([O-])c1ccc(CSc2nc(-c3ccc(F)cc3)c(-c3ccncc3)[nH]2)cc1 (stereo not drawn)	0
NC1=N/C(=C2/CCNC(=O)c3[nH]ccc32)C(=O)N1 [DEBROMOHYMENIALDISINE]	5

What follows are compounds tested against Serine/threonine-protein kinase PAK 5 (Homo sapiens) (UniProt Q9P286).
Serine/threonine-protein kinase PAK 5 (Homo sapiens), sequence (Q9P286 whole entry, looked up): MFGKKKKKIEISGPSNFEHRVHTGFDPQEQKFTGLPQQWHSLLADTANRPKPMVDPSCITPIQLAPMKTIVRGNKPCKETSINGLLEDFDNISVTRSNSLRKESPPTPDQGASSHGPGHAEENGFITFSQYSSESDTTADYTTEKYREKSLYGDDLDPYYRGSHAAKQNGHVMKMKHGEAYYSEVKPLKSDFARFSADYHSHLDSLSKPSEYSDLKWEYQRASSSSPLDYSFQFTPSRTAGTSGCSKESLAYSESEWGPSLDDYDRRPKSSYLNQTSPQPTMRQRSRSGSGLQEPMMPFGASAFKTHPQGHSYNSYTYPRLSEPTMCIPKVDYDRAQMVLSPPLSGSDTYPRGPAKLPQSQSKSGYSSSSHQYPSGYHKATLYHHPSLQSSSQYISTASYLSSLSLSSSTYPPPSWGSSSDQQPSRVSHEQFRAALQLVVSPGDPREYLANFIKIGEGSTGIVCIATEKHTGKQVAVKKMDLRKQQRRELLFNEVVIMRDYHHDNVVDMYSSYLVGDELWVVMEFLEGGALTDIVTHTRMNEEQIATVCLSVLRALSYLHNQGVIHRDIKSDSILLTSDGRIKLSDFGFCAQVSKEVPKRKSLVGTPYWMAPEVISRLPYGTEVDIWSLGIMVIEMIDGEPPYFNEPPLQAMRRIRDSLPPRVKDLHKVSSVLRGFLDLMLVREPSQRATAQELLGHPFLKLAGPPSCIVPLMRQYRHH

Structure (SMILES)	ΔTm [°C]
Cl.Cn1cc(C2=C(c3ccc4cc5n(c4c3)CCC(CN)C5)C(=O)NC2=O)c2ccccc21 (stereo not drawn)	0.1
C[S+]([O-])c1ccc(CSc2nc(-c3ccc(F)cc3)c(-c3ccncc3)[nH]2)cc1 (stereo not drawn)	0.4
NC1=N/C(=C2/CCNC(=O)c3[nH]ccc32)C(=O)N1 [DEBROMOHYMENIALDISINE]	0.2

Each compound was assayed against Ribosomal protein S6 kinase alpha-3 (Homo sapiens) (UniProt P51812).
Ribosomal protein S6 kinase alpha-3 (Homo sapiens), sequence (P51812 whole entry): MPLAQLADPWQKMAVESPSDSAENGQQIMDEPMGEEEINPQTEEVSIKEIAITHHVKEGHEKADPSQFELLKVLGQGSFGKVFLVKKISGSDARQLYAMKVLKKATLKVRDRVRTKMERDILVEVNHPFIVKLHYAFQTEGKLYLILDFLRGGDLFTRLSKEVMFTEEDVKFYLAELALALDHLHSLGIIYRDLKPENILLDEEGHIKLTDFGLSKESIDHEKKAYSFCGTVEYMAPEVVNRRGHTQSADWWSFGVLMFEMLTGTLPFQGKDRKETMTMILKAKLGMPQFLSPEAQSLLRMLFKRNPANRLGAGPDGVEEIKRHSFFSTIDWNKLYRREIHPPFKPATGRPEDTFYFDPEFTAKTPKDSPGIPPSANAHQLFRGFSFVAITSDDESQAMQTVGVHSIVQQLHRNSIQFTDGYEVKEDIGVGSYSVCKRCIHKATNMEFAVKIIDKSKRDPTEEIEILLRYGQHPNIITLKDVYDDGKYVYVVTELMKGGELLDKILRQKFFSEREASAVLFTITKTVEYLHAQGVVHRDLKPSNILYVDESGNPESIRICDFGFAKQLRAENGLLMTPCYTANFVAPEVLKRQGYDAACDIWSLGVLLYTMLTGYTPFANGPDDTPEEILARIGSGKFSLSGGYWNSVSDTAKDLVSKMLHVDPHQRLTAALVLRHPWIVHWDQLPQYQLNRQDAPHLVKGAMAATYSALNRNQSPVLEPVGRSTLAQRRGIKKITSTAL

Structure (SMILES)	ΔTm [°C]
Cl.Cn1cc(C2=C(c3ccc4cc5n(c4c3)CCC(CN)C5)C(=O)NC2=O)c2ccccc21 (stereo not drawn)	0.1
C[S+]([O-])c1ccc(CSc2nc(-c3ccc(F)cc3)c(-c3ccncc3)[nH]2)cc1 (stereo not drawn)	0.1
NC1=N/C(=C2/CCNC(=O)c3[nH]ccc32)C(=O)N1 [DEBROMOHYMENIALDISINE]	6.4

The compounds below were run against Dual specificity protein kinase CLK1 (Homo sapiens) (UniProt P49759).
Dual specificity protein kinase CLK1 (Homo sapiens), sequence (P49759 whole entry, looked up): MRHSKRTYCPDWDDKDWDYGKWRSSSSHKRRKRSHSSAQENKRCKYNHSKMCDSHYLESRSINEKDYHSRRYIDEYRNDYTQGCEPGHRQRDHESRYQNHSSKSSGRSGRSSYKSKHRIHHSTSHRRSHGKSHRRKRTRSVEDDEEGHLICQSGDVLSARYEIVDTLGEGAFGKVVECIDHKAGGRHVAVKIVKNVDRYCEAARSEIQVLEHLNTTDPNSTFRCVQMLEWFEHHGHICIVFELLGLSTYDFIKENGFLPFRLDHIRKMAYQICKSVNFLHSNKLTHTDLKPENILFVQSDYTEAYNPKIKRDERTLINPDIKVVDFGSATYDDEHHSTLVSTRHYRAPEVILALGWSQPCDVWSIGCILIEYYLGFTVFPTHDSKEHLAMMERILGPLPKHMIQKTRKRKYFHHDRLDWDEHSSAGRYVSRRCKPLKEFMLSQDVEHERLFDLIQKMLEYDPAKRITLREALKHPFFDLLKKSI

Structure (SMILES)	ΔTm [°C]
Cl.Cn1cc(C2=C(c3ccc4cc5n(c4c3)CCC(CN)C5)C(=O)NC2=O)c2ccccc21 (stereo not drawn)	1
C[S+]([O-])c1ccc(CSc2nc(-c3ccc(F)cc3)c(-c3ccncc3)[nH]2)cc1 (stereo not drawn)	-0.5
NC1=N/C(=C2/CCNC(=O)c3[nH]ccc32)C(=O)N1 [DEBROMOHYMENIALDISINE]	6

Each compound was assayed against Calcium/calmodulin-dependent protein kinase type 1D (Homo sapiens) (UniProt Q8IU85).
Calcium/calmodulin-dependent protein kinase type 1D (Homo sapiens), sequence (Q8IU85 whole entry, looked up): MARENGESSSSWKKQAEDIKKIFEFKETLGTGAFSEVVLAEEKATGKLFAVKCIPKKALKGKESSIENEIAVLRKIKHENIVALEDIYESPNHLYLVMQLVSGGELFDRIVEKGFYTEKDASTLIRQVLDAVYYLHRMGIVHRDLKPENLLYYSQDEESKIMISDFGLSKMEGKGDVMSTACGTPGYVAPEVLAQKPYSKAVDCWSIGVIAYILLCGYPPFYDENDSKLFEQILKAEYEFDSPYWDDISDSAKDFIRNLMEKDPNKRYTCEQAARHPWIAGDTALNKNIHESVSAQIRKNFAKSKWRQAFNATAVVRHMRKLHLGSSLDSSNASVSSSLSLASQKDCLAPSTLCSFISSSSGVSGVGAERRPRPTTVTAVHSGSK

Structure (SMILES)	ΔTm [°C]
Cl.Cn1cc(C2=C(c3ccc4cc5n(c4c3)CCC(CN)C5)C(=O)NC2=O)c2ccccc21 (stereo not drawn)	0.3
C[S+]([O-])c1ccc(CSc2nc(-c3ccc(F)cc3)c(-c3ccncc3)[nH]2)cc1 (stereo not drawn)	0
NC1=N/C(=C2/CCNC(=O)c3[nH]ccc32)C(=O)N1 [DEBROMOHYMENIALDISINE]	0

These compounds were tested against Mitogen-activated protein kinase 11 (Homo sapiens, UniProt Q15759).
Mitogen-activated protein kinase 11, sequence (Q15759 whole entry): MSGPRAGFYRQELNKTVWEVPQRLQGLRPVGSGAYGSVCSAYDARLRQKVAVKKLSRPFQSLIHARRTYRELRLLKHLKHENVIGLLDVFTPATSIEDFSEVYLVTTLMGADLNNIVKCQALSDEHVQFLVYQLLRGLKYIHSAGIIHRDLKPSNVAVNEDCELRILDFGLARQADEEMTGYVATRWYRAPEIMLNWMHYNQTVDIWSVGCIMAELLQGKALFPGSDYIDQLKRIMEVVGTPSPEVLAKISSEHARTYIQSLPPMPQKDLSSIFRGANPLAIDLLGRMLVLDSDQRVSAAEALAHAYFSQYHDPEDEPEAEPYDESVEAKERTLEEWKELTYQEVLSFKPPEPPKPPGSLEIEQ

Structure (SMILES)	ΔTm [°C]
Cl.Cn1cc(C2=C(c3ccc4cc5n(c4c3)CCC(CN)C5)C(=O)NC2=O)c2ccccc21 (stereo not drawn)	-0.1
C[S+]([O-])c1ccc(CSc2nc(-c3ccc(F)cc3)c(-c3ccncc3)[nH]2)cc1 (stereo not drawn)	1.5
NC1=N/C(=C2/CCNC(=O)c3[nH]ccc32)C(=O)N1 [DEBROMOHYMENIALDISINE]	-0.4

These compounds were tested against Serine/threonine-protein kinase 25 (Homo sapiens) (UniProt O00506).
Serine/threonine-protein kinase 25 (Homo sapiens), sequence (O00506 whole entry, looked up): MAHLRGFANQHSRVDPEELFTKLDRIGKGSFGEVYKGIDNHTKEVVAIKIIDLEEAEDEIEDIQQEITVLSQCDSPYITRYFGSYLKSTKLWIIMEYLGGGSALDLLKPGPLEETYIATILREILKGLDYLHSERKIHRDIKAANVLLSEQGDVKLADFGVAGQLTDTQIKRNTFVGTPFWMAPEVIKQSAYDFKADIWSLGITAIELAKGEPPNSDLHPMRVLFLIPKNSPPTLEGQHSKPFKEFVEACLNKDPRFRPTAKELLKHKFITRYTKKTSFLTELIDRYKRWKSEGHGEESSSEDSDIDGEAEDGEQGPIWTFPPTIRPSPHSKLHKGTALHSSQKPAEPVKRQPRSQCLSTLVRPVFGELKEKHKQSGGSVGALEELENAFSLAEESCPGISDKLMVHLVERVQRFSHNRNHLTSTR

Structure (SMILES)	ΔTm [°C]
Cl.Cn1cc(C2=C(c3ccc4cc5n(c4c3)CCC(CN)C5)C(=O)NC2=O)c2ccccc21 (stereo not drawn)	0.7
C[S+]([O-])c1ccc(CSc2nc(-c3ccc(F)cc3)c(-c3ccncc3)[nH]2)cc1 (stereo not drawn)	0.6
NC1=N/C(=C2/CCNC(=O)c3[nH]ccc32)C(=O)N1 [DEBROMOHYMENIALDISINE]	1.7

The compounds below were run against Cyclin-dependent kinase-like 1 (Homo sapiens) (UniProt Q00532).
Cyclin-dependent kinase-like 1 (Homo sapiens), sequence (Q00532 whole entry): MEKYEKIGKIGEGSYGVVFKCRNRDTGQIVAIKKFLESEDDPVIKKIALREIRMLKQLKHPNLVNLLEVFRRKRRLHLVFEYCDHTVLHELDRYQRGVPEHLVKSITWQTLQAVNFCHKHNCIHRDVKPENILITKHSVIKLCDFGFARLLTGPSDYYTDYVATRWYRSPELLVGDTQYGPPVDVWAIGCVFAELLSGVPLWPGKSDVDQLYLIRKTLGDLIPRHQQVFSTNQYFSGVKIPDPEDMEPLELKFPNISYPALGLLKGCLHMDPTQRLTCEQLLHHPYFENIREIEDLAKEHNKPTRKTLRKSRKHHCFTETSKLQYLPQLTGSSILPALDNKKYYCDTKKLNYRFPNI

Structure (SMILES)	ΔTm [°C]
Cl.Cn1cc(C2=C(c3ccc4cc5n(c4c3)CCC(CN)C5)C(=O)NC2=O)c2ccccc21 (stereo not drawn)	0.2
C[S+]([O-])c1ccc(CSc2nc(-c3ccc(F)cc3)c(-c3ccncc3)[nH]2)cc1 (stereo not drawn)	0.2
NC1=N/C(=C2/CCNC(=O)c3[nH]ccc32)C(=O)N1 [DEBROMOHYMENIALDISINE]	0.3

The compounds below were run against Cyclin-dependent kinase 6 (Homo sapiens) (UniProt Q00534).
Cyclin-dependent kinase 6 (Homo sapiens), sequence (Q00534 whole entry): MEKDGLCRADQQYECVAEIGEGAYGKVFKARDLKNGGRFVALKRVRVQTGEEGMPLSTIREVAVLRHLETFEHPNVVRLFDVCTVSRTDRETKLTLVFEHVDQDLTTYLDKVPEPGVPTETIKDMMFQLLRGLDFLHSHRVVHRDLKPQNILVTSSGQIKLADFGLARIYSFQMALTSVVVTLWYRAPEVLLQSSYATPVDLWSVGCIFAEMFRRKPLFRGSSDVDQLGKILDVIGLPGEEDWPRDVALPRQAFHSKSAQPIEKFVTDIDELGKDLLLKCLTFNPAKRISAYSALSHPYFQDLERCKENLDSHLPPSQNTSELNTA

Structure (SMILES)	ΔTm [°C]
Cl.Cn1cc(C2=C(c3ccc4cc5n(c4c3)CCC(CN)C5)C(=O)NC2=O)c2ccccc21 (stereo not drawn)	1
C[S+]([O-])c1ccc(CSc2nc(-c3ccc(F)cc3)c(-c3ccncc3)[nH]2)cc1 (stereo not drawn)	0.2
NC1=N/C(=C2/CCNC(=O)c3[nH]ccc32)C(=O)N1 [DEBROMOHYMENIALDISINE]	0.6

The compounds below were run against T1, Serine/threonine-protein kinase PLK4 (Homo sapiens) (UniProt O00444).
T1 sequence (whole entry): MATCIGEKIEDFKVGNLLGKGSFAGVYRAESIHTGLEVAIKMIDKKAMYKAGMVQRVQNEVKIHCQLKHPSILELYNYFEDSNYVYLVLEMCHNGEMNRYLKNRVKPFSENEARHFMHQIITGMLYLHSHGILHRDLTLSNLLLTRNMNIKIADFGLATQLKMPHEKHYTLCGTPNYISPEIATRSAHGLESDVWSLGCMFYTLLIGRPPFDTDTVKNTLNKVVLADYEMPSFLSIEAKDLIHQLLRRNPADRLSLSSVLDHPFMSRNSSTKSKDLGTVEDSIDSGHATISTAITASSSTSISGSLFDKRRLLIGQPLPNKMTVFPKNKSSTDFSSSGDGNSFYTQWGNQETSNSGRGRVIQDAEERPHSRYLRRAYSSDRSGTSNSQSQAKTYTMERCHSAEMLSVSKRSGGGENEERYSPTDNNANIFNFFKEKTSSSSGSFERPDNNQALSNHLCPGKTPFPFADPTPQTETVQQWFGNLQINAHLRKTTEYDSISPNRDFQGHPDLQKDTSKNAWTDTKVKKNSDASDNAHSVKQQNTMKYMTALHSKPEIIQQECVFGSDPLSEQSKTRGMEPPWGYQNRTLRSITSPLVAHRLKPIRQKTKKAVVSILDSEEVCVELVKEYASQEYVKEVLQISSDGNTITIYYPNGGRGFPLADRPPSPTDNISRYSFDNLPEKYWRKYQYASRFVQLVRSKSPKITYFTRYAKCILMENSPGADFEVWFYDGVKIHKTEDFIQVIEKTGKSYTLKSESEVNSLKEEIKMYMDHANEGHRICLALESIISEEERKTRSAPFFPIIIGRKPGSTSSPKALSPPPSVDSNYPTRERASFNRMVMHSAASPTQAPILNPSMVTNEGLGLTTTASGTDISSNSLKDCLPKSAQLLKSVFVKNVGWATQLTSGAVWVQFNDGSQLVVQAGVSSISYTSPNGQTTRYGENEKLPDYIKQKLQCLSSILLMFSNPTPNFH

Structure (SMILES)	ΔTm [°C]
Cl.Cn1cc(C2=C(c3ccc4cc5n(c4c3)CCC(CN)C5)C(=O)NC2=O)c2ccccc21 (stereo not drawn)	0.1
C[S+]([O-])c1ccc(CSc2nc(-c3ccc(F)cc3)c(-c3ccncc3)[nH]2)cc1 (stereo not drawn)	0.3
NC1=N/C(=C2/CCNC(=O)c3[nH]ccc32)C(=O)N1 [DEBROMOHYMENIALDISINE]	0.9

The compounds below were run against Serine/threonine-protein kinase 26 (Homo sapiens) (UniProt Q9P289).
Serine/threonine-protein kinase 26 (Homo sapiens), sequence (Q9P289 2-416 limits assumed): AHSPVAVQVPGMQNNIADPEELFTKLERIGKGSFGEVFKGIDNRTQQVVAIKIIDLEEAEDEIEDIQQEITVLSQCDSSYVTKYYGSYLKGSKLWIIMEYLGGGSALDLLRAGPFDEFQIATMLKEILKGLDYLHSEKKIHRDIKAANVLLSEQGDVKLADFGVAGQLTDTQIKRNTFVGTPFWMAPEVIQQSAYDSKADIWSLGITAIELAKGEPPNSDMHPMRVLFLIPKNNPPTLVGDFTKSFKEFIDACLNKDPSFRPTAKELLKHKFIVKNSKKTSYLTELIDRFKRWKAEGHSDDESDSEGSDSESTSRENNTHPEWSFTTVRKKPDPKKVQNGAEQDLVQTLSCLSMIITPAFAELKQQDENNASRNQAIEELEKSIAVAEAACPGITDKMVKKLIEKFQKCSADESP

Structure (SMILES)	ΔTm [°C]
Cl.Cn1cc(C2=C(c3ccc4cc5n(c4c3)CCC(CN)C5)C(=O)NC2=O)c2ccccc21 (stereo not drawn)	0.3
C[S+]([O-])c1ccc(CSc2nc(-c3ccc(F)cc3)c(-c3ccncc3)[nH]2)cc1 (stereo not drawn)	0
NC1=N/C(=C2/CCNC(=O)c3[nH]ccc32)C(=O)N1 [DEBROMOHYMENIALDISINE]	0.7

Each compound was assayed against Serine/threonine-protein kinase pim-1 (Homo sapiens) (UniProt P11309).
Serine/threonine-protein kinase pim-1 (Homo sapiens), sequence (P11309 whole entry, looked up): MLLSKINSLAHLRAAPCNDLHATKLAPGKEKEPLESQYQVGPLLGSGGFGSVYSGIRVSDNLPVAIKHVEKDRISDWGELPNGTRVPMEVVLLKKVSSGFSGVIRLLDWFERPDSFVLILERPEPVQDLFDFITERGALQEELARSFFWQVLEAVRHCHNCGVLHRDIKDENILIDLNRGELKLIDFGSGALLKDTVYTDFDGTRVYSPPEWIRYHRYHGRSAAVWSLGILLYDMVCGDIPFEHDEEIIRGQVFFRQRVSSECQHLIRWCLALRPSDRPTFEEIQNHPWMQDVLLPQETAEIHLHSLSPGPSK

Structure (SMILES)	ΔTm [°C]
Cl.Cn1cc(C2=C(c3ccc4cc5n(c4c3)CCC(CN)C5)C(=O)NC2=O)c2ccccc21 (stereo not drawn)	6.3
C[S+]([O-])c1ccc(CSc2nc(-c3ccc(F)cc3)c(-c3ccncc3)[nH]2)cc1 (stereo not drawn)	-2
NC1=N/C(=C2/CCNC(=O)c3[nH]ccc32)C(=O)N1 [DEBROMOHYMENIALDISINE]	0.7

What follows are compounds tested against T2, Serine/threonine-protein kinase Nek2 (Homo sapiens) (UniProt P51955).
T2 sequence (whole entry): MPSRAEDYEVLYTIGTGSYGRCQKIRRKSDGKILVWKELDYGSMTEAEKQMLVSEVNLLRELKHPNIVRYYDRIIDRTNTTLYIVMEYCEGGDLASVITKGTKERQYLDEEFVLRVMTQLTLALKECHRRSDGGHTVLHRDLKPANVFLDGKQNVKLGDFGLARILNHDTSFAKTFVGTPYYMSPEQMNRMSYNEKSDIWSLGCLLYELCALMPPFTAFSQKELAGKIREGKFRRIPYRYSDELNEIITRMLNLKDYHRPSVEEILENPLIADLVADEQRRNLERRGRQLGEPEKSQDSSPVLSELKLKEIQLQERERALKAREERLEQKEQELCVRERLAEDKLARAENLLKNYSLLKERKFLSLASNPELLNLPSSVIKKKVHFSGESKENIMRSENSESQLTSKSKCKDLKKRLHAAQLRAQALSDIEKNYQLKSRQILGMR

Structure (SMILES)	ΔTm [°C]
Cl.Cn1cc(C2=C(c3ccc4cc5n(c4c3)CCC(CN)C5)C(=O)NC2=O)c2ccccc21 (stereo not drawn)	1.1
C[S+]([O-])c1ccc(CSc2nc(-c3ccc(F)cc3)c(-c3ccncc3)[nH]2)cc1 (stereo not drawn)	0.5
NC1=N/C(=C2/CCNC(=O)c3[nH]ccc32)C(=O)N1 [DEBROMOHYMENIALDISINE]	1.1

What follows are compounds tested against T3, 3-phosphoinositide-dependent protein kinase 1 (Homo sapiens) (UniProt O15530).
T3 sequence (whole entry): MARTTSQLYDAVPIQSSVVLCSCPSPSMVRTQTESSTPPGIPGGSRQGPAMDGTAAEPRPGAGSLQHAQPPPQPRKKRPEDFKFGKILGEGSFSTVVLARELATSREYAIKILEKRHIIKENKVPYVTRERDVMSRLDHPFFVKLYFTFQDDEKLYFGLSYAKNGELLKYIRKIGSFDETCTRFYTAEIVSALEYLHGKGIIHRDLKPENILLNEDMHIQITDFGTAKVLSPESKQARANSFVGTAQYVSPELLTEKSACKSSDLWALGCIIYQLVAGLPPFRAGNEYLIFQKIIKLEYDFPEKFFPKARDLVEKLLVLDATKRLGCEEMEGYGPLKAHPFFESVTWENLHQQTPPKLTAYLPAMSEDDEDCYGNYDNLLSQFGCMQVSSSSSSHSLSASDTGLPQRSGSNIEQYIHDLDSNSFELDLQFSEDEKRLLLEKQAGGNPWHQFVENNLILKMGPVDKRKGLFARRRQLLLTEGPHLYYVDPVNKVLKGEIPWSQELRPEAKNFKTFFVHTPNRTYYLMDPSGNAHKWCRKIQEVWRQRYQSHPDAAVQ

Structure (SMILES)	ΔTm [°C]
Cl.Cn1cc(C2=C(c3ccc4cc5n(c4c3)CCC(CN)C5)C(=O)NC2=O)c2ccccc21 (stereo not drawn)	0
C[S+]([O-])c1ccc(CSc2nc(-c3ccc(F)cc3)c(-c3ccncc3)[nH]2)cc1 (stereo not drawn)	-0.3
NC1=N/C(=C2/CCNC(=O)c3[nH]ccc32)C(=O)N1 [DEBROMOHYMENIALDISINE]	0

What follows are compounds tested against STE20-like serine/threonine-protein kinase (Homo sapiens) (UniProt Q9H2G2).

Structure (SMILES)	ΔTm [°C]
Cl.Cn1cc(C2=C(c3ccc4cc5n(c4c3)CCC(CN)C5)C(=O)NC2=O)c2ccccc21 (stereo not drawn)	4.5
C[S+]([O-])c1ccc(CSc2nc(-c3ccc(F)cc3)c(-c3ccncc3)[nH]2)cc1 (stereo not drawn)	1.1
NC1=N/C(=C2/CCNC(=O)c3[nH]ccc32)C(=O)N1 [DEBROMOHYMENIALDISINE]	0.6

What follows are compounds tested against Serine/threonine-protein kinase Chk2 (Homo sapiens, UniProt O96017).

Structure (SMILES)	ΔTm [°C]
Cl.Cn1cc(C2=C(c3ccc4cc5n(c4c3)CCC(CN)C5)C(=O)NC2=O)c2ccccc21 (stereo not drawn)	1
C[S+]([O-])c1ccc(CSc2nc(-c3ccc(F)cc3)c(-c3ccncc3)[nH]2)cc1 (stereo not drawn)	-0.4
NC1=N/C(=C2/CCNC(=O)c3[nH]ccc32)C(=O)N1 [DEBROMOHYMENIALDISINE]	1.7
